Measurements reported in patent US20230085307A1, “PYRIDAZINONE COMPOUND AND HERBICIDE” (NISSAN CHEMICAL CORPORATION, priority 2019, published 2023).

Experiments:
Italian ryegrass [1] = test: Test Example 5: herbicidal effect by foliage application, plastic box (Table 20, symbol K); type: in vivo, Italian ryegrass (Lolium multiflorum); details: foliage application, 294 g/ha, 3 weeks after application
Summary of the method: (§1)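 Plants sown in sterilized diluvial soil and grown 14 days in a greenhouse at 25° C to 30° C, then sprayed on the foliage with the compound's emulsion diluted in water to a predetermined herbicide amount. Injury to weeds and crops scored three weeks after application on a visual rating scale.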

wild oat [2] = test: Test Example 4: herbicidal effect by soil treatment (Table 19, symbol I); type: in vivo, wild oat (Avena fatua); details: 294 g/ha
Summary of the method: (§2)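 Seeds were sown in sterilized diluvial soil and covered with about 1.5 cm of soil. An emulsion formulation diluted with water to a predetermined herbicide amount was sprayed evenly onto the soil surface. Plants grew in a greenhouse at 25° C. to 30° C., and the effect was scored three weeks after application using criteria from an earlier test.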

green foxtail [3] = test: Test Example 5: herbicidal effect by foliage application, plastic box (Table 20, symbol G); type: in vivo, green foxtail (Setaria viridis); details: foliage application, 294 g/ha, 3 weeks after application
Summary of the method: as §1

blackgrass [4] = test: Test Example 4: herbicidal effect by soil treatment (Table 19, symbol J); type: in vivo, blackgrass (Alopecurus myosuroides); details: 294 g/ha
Summary of the method: as §2

windgrass [5] = test: Test Example 5: herbicidal effect by foliage application, plastic box (Table 20, symbol L); type: in vivo, windgrass (Apera spica-venti); details: foliage application, 294 g/ha, 3 weeks after application
Summary of the method: as §1

rice flat sedge = test: Test Example 3: herbicidal effect by foliage application, Wagner pot (Table 18, symbol E); type: in vivo, rice flat sedge (Cyperus iria); details: 294 g/ha
Summary of the method: (§3)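 Plants were sown in alluvial soil held under 0.1–0.5 cm standing water and grown 14 days in a greenhouse at 25–30 °C. An emulsifiable formulation, water-diluted to the set dose, was then sprayed onto the foliage, and effects were scored three weeks later using previously defined criteria.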

chickweed = test: Test Example 4: herbicidal effect by soil treatment (Table 19, symbol P); type: in vivo, common chickweed (Stellaria media); details: 294 g/ha
Summary of the method: as §2

Chinese sprangletop = test: Test Example 3: herbicidal effect by foliage application, Wagner pot (Table 18, symbol D); type: in vivo, chinese sprangletop (Leptochloa chinensis); details: 294 g/ha
Summary of the method: as §3

wild oat [6] = test: Test Example 5: herbicidal effect by foliage application, plastic box (Table 20, symbol I); type: in vivo, wild oat (Avena fatua); details: foliage application, 294 g/ha, 3 weeks after application
Summary of the method: as §1

persian speedwell [7] = test: Test Example 4: herbicidal effect by soil treatment (Table 19, symbol R); type: in vivo, Persian speedwell (Veronica persica); details: 294 g/ha
Summary of the method: as §2

lambsquarters [8] = test: Test Example 5: herbicidal effect by foliage application, plastic box (Table 20, symbol O); type: in vivo, lambsquarters (Chenopodium album); details: foliage application, 294 g/ha, 3 weeks after application
Summary of the method: as §1

redroot pigweed = test: Test Example 4: herbicidal effect by soil treatment (Table 19, symbol N); type: in vivo, redroot pigweed (Amaranthus retroflexus); details: 294 g/ha
Summary of the method: as §2

barnyard grass [9] = test: Test Example 3: herbicidal effect by foliage application, Wagner pot (Table 18, symbol H); type: in vivo, barnyard grass (Echinochloa crus-galli); details: 294 g/ha
Summary of the method: as §3

false cleavers = test: Test Example 5: herbicidal effect by foliage application, plastic box (Table 20, symbol Q); type: in vivo, false cleavers (Galium spurium); details: foliage application, 294 g/ha, 3 weeks after application
Summary of the method: as §1

Italian ryegrass [10] = test: Test Example 4: herbicidal effect by soil treatment (Table 19, symbol K); type: in vivo, Italian ryegrass (Lolium multiflorum); details: 294 g/ha
Summary of the method: as §2

green foxtail [11] = test: Test Example 4: herbicidal effect by soil treatment (Table 19, symbol G); type: in vivo, green foxtail (Setaria viridis); details: 294 g/ha
Summary of the method: as §2

windgrass [12] = test: Test Example 4: herbicidal effect by soil treatment (Table 19, symbol L); type: in vivo, windgrass (Apera spica-venti); details: 294 g/ha
Summary of the method: as §2

southern crabgrass [13] = test: Test Example 5: herbicidal effect by foliage application, plastic box (Table 20, symbol F); type: in vivo, southern crabgrass (Digitaria ciliaris); details: foliage application, 294 g/ha, 3 weeks after application
Summary of the method: as §1

velvetleaf [14] = test: Test Example 5: herbicidal effect by foliage application, plastic box (Table 20, symbol M); type: in vivo, velvetleaf (Abutilon theophrasti); details: foliage application, 294 g/ha, 3 weeks after application
Summary of the method: as §1

lambsquarters [15] = test: Test Example 4: herbicidal effect by soil treatment (Table 19, symbol O); type: in vivo, lambsquarters (Chenopodium album); details: 294 g/ha
Summary of the method: as §2

barnyard grass [16] = test: Test Example 4: herbicidal effect by soil treatment (Table 19, symbol H); type: in vivo, barnyard grass (Echinochloa crus-galli); details: 294 g/ha
Summary of the method: as §2

persian speedwell [17] = test: Test Example 5: herbicidal effect by foliage application, plastic box (Table 20, symbol R); type: in vivo, Persian speedwell (Veronica persica); details: foliage application, 294 g/ha, 3 weeks after application
Summary of the method: as §1

southern crabgrass [18] = test: Test Example 4: herbicidal effect by soil treatment (Table 19, symbol F); type: in vivo, southern crabgrass (Digitaria ciliaris); details: 294 g/ha
Summary of the method: as §2

velvetleaf [19] = test: Test Example 4: herbicidal effect by soil treatment (Table 19, symbol M); type: in vivo, velvetleaf (Abutilon theophrasti); details: 294 g/ha
Summary of the method: as §2

blackgrass [20] = test: Test Example 5: herbicidal effect by foliage application, plastic box (Table 20, symbol J); type: in vivo, blackgrass (Alopecurus myosuroides); details: foliage application, 294 g/ha, 3 weeks after application
Summary of the method: as §1

barnyard grass [21] = test: Test Example 5: herbicidal effect by foliage application, plastic box (Table 20, symbol H); type: in vivo, barnyard grass (Echinochloa crus-galli); details: foliage application, 294 g/ha, 3 weeks after application
Summary of the method: as §1

Question: `COc1ccccc1-c1sc2ccc(F)cc2c1-c1c(O)c(C)nn(C)c1=O` [2-024] was tested. Which “effect on Italian ryegrass (K)” value (Italian ryegrass [1]) did it give?
Answer: Its value is 3 (Herbicidal rate of 40% or more and less than 70%).

Question: And the “herbicidal effect rating, I: wild oat” value (wild oat [2])?
Answer: The value was 0 (Herbicidal rate of 5% or less (almost no effect)).

Question: And the “effect on green foxtail (G)” value (green foxtail [3])?
Answer: Its value is 4 (Herbicidal rate of 70% or more and less than 90%).

Question: And the “herbicidal effect rating, J: blackgrass” value (blackgrass [4])?
Answer: The value was 2 (Herbicidal rate of 20% or more and less than 40%).

Question: And the “effect on windgrass (L)” value (windgrass [5])?
Answer: The value was 4 (Herbicidal rate of 70% or more and less than 90%).

Question: And the “herbicidal effect on E (rice flat sedge), rating 0-5” value (rice flat sedge)?
Answer: The value was 4 (Herbicidal rate of 70% or more and less than 90%).

Question: And the “herbicidal effect rating, P: chickweed” value (chickweed)?
Answer: Its value is 3 (Herbicidal rate of 40% or more and less than 70%).

Question: What about the “herbicidal effect on D (Chinese sprangletop), rating 0-5” value (Chinese sprangletop) of the same molecule?
Answer: The value was 3 (Herbicidal rate of 40% or more and less than 70%).

Question: And the “effect on wild oat (I)” value (wild oat [6])?
Answer: The value was 4 (Herbicidal rate of 70% or more and less than 90%).

Question: And the “herbicidal effect rating, R: persian speedwell” value (persian speedwell [7])?
Answer: The value was 4 (Herbicidal rate of 70% or more and less than 90%).

Question: What about the “effect on lambsquarters (O)” value (lambsquarters [8]) of the same molecule?
Answer: Its value is 5 (Herbicidal rate of 90% or more (almost completely withered)).

Question: What about the “herbicidal effect rating, N: redroot pigweed” value (redroot pigweed) of the same molecule?
Answer: The value was 5 (Herbicidal rate of 90% or more (almost completely withered)).

Question: And the “herbicidal effect on H (barnyard grass), rating 0-5” value (barnyard grass [9])?
Answer: Its value is 4 (Herbicidal rate of 70% or more and less than 90%).

Question: What about the “effect on false cleavers (Q)” value (false cleavers) of the same molecule?
Answer: The value was 5 (Herbicidal rate of 90% or more (almost completely withered)).

Question: And the “herbicidal effect rating, K: Italian ryegrass” value (Italian ryegrass [10])?
Answer: The value was 0 (Herbicidal rate of 5% or less (almost no effect)).

Question: What about the “herbicidal effect rating, G: green foxtail” value (green foxtail [11]) of the same molecule?
Answer: The value was 3 (Herbicidal rate of 40% or more and less than 70%).

Question: What about the “herbicidal effect rating, L: windgrass” value (windgrass [12]) of the same molecule?
Answer: Its value is 0 (Herbicidal rate of 5% or less (almost no effect)).

Question: And the “effect on southern crabgrass (F)” value (southern crabgrass [13])?
Answer: Its value is 3 (Herbicidal rate of 40% or more and less than 70%).

Question: What about the “effect on velvetleaf (M)” value (velvetleaf [14]) of the same molecule?
Answer: The value was 5 (Herbicidal rate of 90% or more (almost completely withered)).

Question: What about the “herbicidal effect rating, O: lambsquarters” value (lambsquarters [15]) of the same molecule?
Answer: The value was 5 (Herbicidal rate of 90% or more (almost completely withered)).

Question: And the “herbicidal effect rating, H: barnyard grass” value (barnyard grass [16])?
Answer: The value was 1 (Herbicidal rate of 5% or more and less than 20%).

Question: What about the “effect on persian speedwell (R)” value (persian speedwell [17]) of the same molecule?
Answer: The value was 5 (Herbicidal rate of 90% or more (almost completely withered)).

Question: And the “herbicidal effect rating, F: southern crabgrass” value (southern crabgrass [18])?
Answer: Its value is 3 (Herbicidal rate of 40% or more and less than 70%).

Question: And the “herbicidal effect rating, M: velvetleaf” value (velvetleaf [19])?
Answer: The value was 2 (Herbicidal rate of 20% or more and less than 40%).

Question: And the “effect on blackgrass (J)” value (blackgrass [20])?
Answer: Its value is 5 (Herbicidal rate of 90% or more (almost completely withered)).

Question: What about the “effect on barnyard grass (H)” value (barnyard grass [21]) of the same molecule?
Answer: Its value is 5 (Herbicidal rate of 90% or more (almost completely withered)).
